The target of the experiment is human mOR (Homo sapiens (Human), UniProt P35372). Kind of experiment: cell-based.

Molecules are shown by their SMILES. Like-named read-outs stand apart in the source and are kept apart here.

What is called IC50 is the concentration that inhibits the measured activity by half.

Chain of human mOR (P35372 whole entry): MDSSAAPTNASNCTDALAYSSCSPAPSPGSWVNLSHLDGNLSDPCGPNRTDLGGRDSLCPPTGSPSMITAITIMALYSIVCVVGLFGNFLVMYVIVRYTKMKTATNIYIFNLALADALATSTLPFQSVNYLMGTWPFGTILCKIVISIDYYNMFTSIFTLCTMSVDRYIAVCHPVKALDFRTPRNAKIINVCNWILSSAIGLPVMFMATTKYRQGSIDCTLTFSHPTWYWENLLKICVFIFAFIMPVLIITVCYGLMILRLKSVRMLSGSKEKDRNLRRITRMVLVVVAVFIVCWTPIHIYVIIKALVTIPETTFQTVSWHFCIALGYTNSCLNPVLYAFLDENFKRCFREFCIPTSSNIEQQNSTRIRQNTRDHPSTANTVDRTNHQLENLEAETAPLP

On to `CN(C)[C@H](CNC(=O)C[C@H](c1cccnc1)C1(C(F)(F)F)CC1)Cc1ccc(O)c(F)c1Cl` [Compound 257, (R)-N-((S)-3-(2-chloro-3-fluoro-4-hydroxyphenyl)-2-(dimethylamino)propyl)-3-(pyridin-3-yl)-3-(1-(trifluoromethyl)cyclopropyl)propanamide], for which the IC50 is below 300 nM.

As to `CN(C)[C@H](CNC(=O)C[C@H](c1ccncc1)C1CC1)Cc1ccc(O)c(F)c1Cl` [Compound 258, (S)-N-((S)-3-(2-chloro-3-fluoro-4-hydroxyphenyl)-2-(dimethylamino)propyl)-3-cyclopropyl-3-(pyridin-4-yl)propanamide], the concentration for half-maximal inhibition (IC50) was below 300 nM.

With `COc1ccc(C[C@@H](CNC(=O)C[C@H](c2cccnc2)C2(C(F)(F)F)CC2)N(C)C)c(Cl)c1F` [Compound 259, (R)-N-((S)-3-(2-chloro-3-fluoro-4-methoxyphenyl)-2-(dimethylamino)propyl)-3-(pyridin-3-yl)-3-(1-(trifluoromethyl)cyclopropyl)propanamide], the half-inhibitory concentration (IC50) is above 3000 nM.

Take `CN(C)[C@H](CNC(=O)C[C@H](CC1CC1)c1ccncc1)Cc1ccc(O)cc1Cl` [Compound 260, (S)-N-((S)-3-(2-chloro-4-hydroxyphenyl)-2-(dimethylamino)propyl)-4-cyclopropyl-3-(pyridin-4-yl)butanamide]: the IC50 was below 300 nM.

Consider `CN(C)[C@H](CNC(=O)C[C@H](c1ccncc1)C1(C(F)(F)F)CC1)Cc1ccc(O)cc1Cl` [Compound 261, (R)-N-((S)-3-(2-chloro-4-hydroxyphenyl)-2-(dimethylamino)propyl)-3-(pyridin-4-yl)-3-(1-(trifluoromethyl)cyclopropyl)propanamide], for which the IC50 is below 300 nM.

`CN(C)[C@H](CNC(=O)C[C@H](c1cccnc1)C1(C(F)(F)F)CC1)Cc1ccc(O)cc1Cl` [Compound 262, (R)-N-((S)-3-(2-chloro-4-hydroxyphenyl)-2-(dimethylamino)propyl)-3-(pyridin-3-yl)-3-(1-(trifluoromethyl)cyclopropyl)propanamide]: the IC50 was below 300 nM.

For `Cc1cc(O)ccc1C[C@@H](CNC(=O)C[C@H](c1cncs1)C1CC1)N(C)C` [Compound 264, (S)-3-cyclopropyl-N-((S)-2-(dimethylamino)-3-(4-hydroxy-2-methylphenyl)propyl)-3-(thiazol-5-yl)propanamide], the IC50 was below 300 nM.

With `Cc1cc(O)ccc1C[C@@H](CNC(=O)C[C@H](c1ccoc1)C1(C(F)(F)F)CC1)N(C)C` [Compound 265, (R)-N-((S)-2-(dimethylamino)-3-(4-hydroxy-2-methylphenyl)propyl)-3-(furan-3-yl)-3-(1-(trifluoromethyl)cyclopropyl)propanamide], the IC50 is below 300 nM.

As for `Cc1ccc([C@@H](CC(=O)NC[C@H](Cc2ccc(O)cc2C)N(C)C)C2(C(F)(F)F)CC2)o1` [Compound 266, (S)-N-((S)-2-(dimethylamino)-3-(4-hydroxy-2-methylphenyl)propyl)-3-(5-methylfuran-2-yl)-3-(1-(trifluoromethyl)cyclopropyl) propanamide], the IC50 was below 300 nM.

`Cc1cc(O)ccc1C[C@@H](CNC(=O)C[C@H](c1cncs1)C1(C(F)(F)F)CC1)N(C)C` [Compound 268, (S)-N-((S)-2-(dimethylamino)-3-(4-hydroxy-2-methylphenyl)propyl)-3-(thiazol-5-yl)-3-(1-(trifluoromethyl)cyclopropyl)propanamide]: the concentration for half-maximal inhibition (IC50) is below 300 nM.

Consider `Cc1cc(O)ccc1C[C@@H](CNC(=O)C[C@H](c1cccnc1)C1(C(F)(F)F)CC1)N(C)C` [Compound 269, (R)-N-((S)-2-(dimethylamino)-3-(4-hydroxy-2-methylphenyl)propyl)-3-(pyridin-3-yl)-3-(1-(trifluoromethyl)cyclopropyl)propanamide], for which the IC50 is below 300 nM.

Consider `Cc1cc(O)ccc1C[C@@H](CNC(=O)CC(c1ccncc1)C1(C(F)(F)F)CC1)N(C)C` (stereo partly drawn) [Compound 270, N-((S)-2-(dimethylamino)-3-(4-hydroxy-2-methylphenyl)propyl)-3-(pyridin-4-yl)-3-(1-(trifluoromethyl)cyclopropyl)propanamide], for which the IC50 was below 300 nM.

For the molecule `Cc1cc(O)ccc1C[C@@H](CNC(=O)CC(c1ncccn1)C1(C(F)(F)F)CC1)N(C)C` (stereo partly drawn) [Compound 271, N-((S)-2-(dimethylamino)-3-(4-hydroxy-2-methylphenyl)propyl)-3-(pyrimidin-2-yl)-3-(1-(trifluoromethyl)cyclopropyl)propanamide], the half-inhibitory concentration (IC50) was below 300 nM.

Regarding `Cc1cc(O)ccc1C[C@@H](CNC(=O)CC(c1cccnc1)C1(C(F)(F)F)CC1)N(C)C` (stereo partly drawn) [Compound 272, N-((S)-2-(dimethylamino)-3-(4-hydroxy-2-methylphenyl)propyl)-3-(pyridin-3-yl)-3-(1-(trifluoromethyl)cyclopropyl)propanamide], the concentration for half-maximal inhibition (IC50) was below 300 nM.

On to `Cc1cc(O)ccc1C[C@@H](CNC(=O)CC(c1ncc(Cl)cn1)C1(C(F)(F)F)CC1)N(C)C` (stereo partly drawn) [Compound 274, 3-(5-chloropyridmidin-2-yl)-N-((S)-2-(dimethylamino)-3-(4-hydroxy-2-methylphenyl)propyl)-3-(1-(trifluoromethyl)cyclopropyl) propanamide], for which the IC50 was below 300 nM.

Regarding `CC(C)[C@H](CC(=O)NC[C@H](Cc1ccc(O)c(Cl)c1)N(C)C)c1cccnc1` [Compound 276, (S)-N-((S)-3-(3-chloro-4-hydroxyphenyl)-2-(dimethylamino)propyl)-4-methyl-3-(pyridin-3-yl)pentanamide], the IC50 was below 300 nM.

Take `CN(C)[C@H](CNC(=O)C[C@H](c1ccncc1)C1CC1)Cc1ccc(O)c(Cl)c1` [Compound 277, (S)-N-((S)-3-(3-chloro-4-hydroxyphenyl)-2-(dimethylamino)propyl)-3-cyclopropyl-3-(pyridin-4-yl)propanamide]: the half-maximal inhibitory concentration (IC50) was below 300 nM.

For `CN(C)[C@H](CNC(=O)C[C@H](c1ccncc1)C1(C(F)(F)F)CC1)Cc1ccc(O)c(Cl)c1` [Compound 278, (R)-N-((S)-3-(3-chloro-4-hydroxyphenyl)-2-(dimethylamino)propyl)-3-(pyridin-4-yl)-3-(1-(trifluoromethyl)cyclopropyl)propanamide], the IC50 was below 300 nM.

On to `CN(C)[C@H](CNC(=O)C[C@@H](CC1CC1)c1cccnc1)Cc1ccc(O)c(Cl)c1` [Compound 279, (R)-N-((S)-3-(3-chloro-4-hydroxyphenyl)-2-(dimethylamino)propyl)-4-cyclopropyl-3-(pyridin-3-yl)butanamide], for which the half-inhibitory concentration (IC50) was below 300 nM.

On to `CN(C)[C@H](CNC(=O)C[C@H](c1cccnc1)C1CC1)Cc1ccc(O)c(Cl)c1` [Compound 281, (S)-N-((S)-3-(3-chloro-4-hydroxyphenyl)-2-(dimethylamino)propyl)-3-cyclopropyl-3-(pyridin-3-yl)propanamide], for which the half-inhibitory concentration (IC50) was below 300 nM.

In the case of `CN(C)[C@H](CNC(=O)C[C@@H](CC1CC1)c1cncnc1)Cc1ccc(O)c(Cl)c1` [Compound 282, (R)-N-((S)-3-(3-chloro-4-hydroxyphenyl)-2-(dimethylamino)propyl)-4-cyclopropyl-3-(pyrimidin-5-yl)butanamide], the IC50 was below 300 nM.

Consider `Cc1ncc([C@@H](CC(=O)NC[C@H](Cc2ccc(O)c(Cl)c2)N(C)C)C2(C(F)(F)F)CC2)cn1` [Compound 283, (R)-N-((S)-3-(3-chloro-4-hydroxyphenyl)-2-(dimethylamino)propyl)-3-(2-methylpyrimidin-5-yl)-3-(1-(trifluoromethyl)cyclopropyl)propanamide], for which the concentration for half-maximal inhibition (IC50) was below 300 nM.

`CN(C)[C@H](CNC(=O)CC(c1ccncc1)C1(C(F)(F)F)CC1)Cc1ccc(O)c(Cl)c1` (stereo partly drawn) [Compound 284, N-((S)-3-(3-chloro-4-hydroxyphenyl)-2-(dimethylamino)propyl)-3-(pyridin-4-yl)-3-(1-(trifluoromethyl)cyclopropyl)propanamide]: the IC50 is below 300 nM.

For `CN(C)[C@H](CNC(=O)CC(c1ncccn1)C1(C(F)(F)F)CC1)Cc1ccc(O)c(Cl)c1` (stereo partly drawn) [Compound 285, N-((S)-3-(3-chloro-4-hydroxyphenyl)-2-(dimethylamino)propyl)-3-(pyrimidin-2-yl)-3-(1-(trifluoromethyl)cyclopropyl)propanamide], the IC50 was below 300 nM.

Turning to `CN(C)[C@H](CNC(=O)C[C@H](CC1CC1)c1cccnc1)Cc1ccc(O)c(Cl)c1` [Compound 286, (S)-N-((S)-3-(3-chloro-4-hydroxyphenyl)-2-(dimethylamino)propyl)-4-cyclopropyl-3-(pyridin-3-yl)butanamide], the IC50 was below 300 nM.

On to `CN(C)[C@H](CNC(=O)CC(c1cccnc1)C1(C(F)(F)F)CC1)Cc1ccc(O)c(Cl)c1` (stereo partly drawn) [Compound 287, N-((S)-3-(3-chloro-4-hydroxyphenyl)-2-(dimethylamino)propyl)-3-(pyridin-3-yl)-3-(1-(trifluoromethyl)cyclopropyl)propanamide], for which the IC50 is below 300 nM.

With `CN(C)[C@H](CNC(=O)C[C@H](c1cccnc1)C1(C(F)(F)F)CC1)Cc1ccc(O)c(F)c1` [Compound 290, (R)-N-((S)-2-(dimethylamino)-3-(3-fluoro-4-hydroxyphenyl)propyl)-3-(pyridin-3-yl)-3-(1-(trifluoromethyl)cyclopropyl)propanamide], the IC50 was below 300 nM.

For `CN(C)[C@H](CNC(=O)CC(c1cccnc1)C1(C(F)(F)F)CC1)Cc1ccc(O)cc1` (stereo partly drawn) [Compound 291, N-((S)-2-(dimethylamino)-3-(4-hydroxyphenyl)propyl)-3-(pyridin-3-yl)-3-(1-(trifluoromethyl)cyclopropyl)propanamide], the IC50 was below 300 nM.

Take `CN(C)[C@H](CNC(=O)C[C@H](c1cncs1)C1CC1)Cc1ccc(O)cc1` [Compound 292, (S)-3-cyclopropyl-N-((S)-2-(dimethylamino)-3-(4-hydroxyphenyl)propyl)-3-(thiazol-5-yl)propanamide]: the IC50 (CHO Tag-lite human mOR stable cell line, forskolin 4 μM and DAMGO at EC90, read-out: mOR cAMP Antagonist Assay IC50) was in the range of 300 to 3000 nM.

For the molecule `Cc1ccc([C@@H](CC(=O)NC[C@H](Cc2ccc(O)cc2)N(C)C)C2(C(F)(F)F)CC2)s1` [Compound 293, (S)-N-((S)-2-(dimethylamino)-3-(4-hydroxyphenyl)propyl)-3-(5-methylthiophen-2-yl)-3-(1-(trifluoromethyl)cyclopropyl)propanamide], the IC50 was below 300 nM.
